The values below are quoted from earlier work in patent publication US6409991B1, “Treatment and system for nicotine withdrawal” (priority 1999, dated 2002).

In the case of `CN1CCCC1c1cccnc1` (stereo not shown) [nicotine], the plasma half-life result is recorded as “approximately two”.
